Results: ChEMBL document CHEMBL4613321, “Discovery of Small-Molecule Stabilizers of 14-3-3 Protein-Protein Interactions via Dynamic Combinatorial Chemistry” (ACS Med Chem Lett, 2020)
Activity calls are given as the source filed them. No cut-off for these calls is given here.

Key:
[1] = target: T1, 14-3-3 protein zeta/delta (Homo sapiens) (UniProt P63104); test: Binding affinity to 14-3-3 zeta (unknown origin) assessed as dissociation rate constant by SPR analysis
T1 sequence (whole entry): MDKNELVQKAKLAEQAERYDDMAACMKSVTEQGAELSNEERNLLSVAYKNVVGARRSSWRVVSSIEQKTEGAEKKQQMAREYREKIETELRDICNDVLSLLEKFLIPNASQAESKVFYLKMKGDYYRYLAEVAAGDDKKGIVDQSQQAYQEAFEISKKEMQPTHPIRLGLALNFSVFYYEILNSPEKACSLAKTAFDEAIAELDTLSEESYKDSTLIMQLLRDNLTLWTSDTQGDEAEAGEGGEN

[2] = target: T1, 14-3-3 protein zeta/delta (Homo sapiens); test: Binding affinity to 14-3-3 zeta (unknown origin) assessed as half life for dissociation by SPR analysis
[3] = target: T1, 14-3-3 protein zeta/delta (Homo sapiens); test: Binding affinity to 14-3-3 zeta (unknown origin) assessed as association rate constant by SPR analysis
[4] = target: T1, 14-3-3 protein zeta/delta (Homo sapiens); test: Competitive binding affinity to 14-3-3 zeta (unknown origin) at 25 uM in presence of 1 uM synaptopodin by SPR analysis
[5] = target: T1, 14-3-3 protein zeta/delta (Homo sapiens); test: Binding affinity to 14-3-3 zeta (unknown origin) assessed as response unit at 3.1 to 50 uM by SPR analysis
[6] = target: T2, 14-3-3 protein zeta/delta (Homo sapiens, UniProt P63104); test: Binding affinity to 14-3-3 zeta (unknown origin) by SPR analysis
T2 sequence (P63104 whole entry): T1 sequence (whole entry)

[7] = target: T1, 14-3-3 protein zeta/delta (Homo sapiens); test: Competitive binding affinity to 14-3-3 zeta (unknown origin) at 1000 uM in presence of 1 uM synaptopodin by SPR analysis
[8] = target: T1, 14-3-3 protein zeta/delta (Homo sapiens); test: Competitive binding affinity to 14-3-3 zeta (unknown origin) at 200 uM in presence of 1 uM synaptopodin by SPR analysis
[9] = target: T1, 14-3-3 protein zeta/delta (Homo sapiens); test: Competitive binding affinity to 14-3-3 zeta (unknown origin) at 1000 uM in presence of 25 uM synaptopodin by SPR analysis
[10] = target: T2, 14-3-3 protein zeta/delta; test: Binding affinity to 14-3-3 zeta (unknown origin) assessed as 14-3-3 zeta-synaptopodin interaction by fluorescence polarization assay

| SMILES | Kdiss [1] | T1/2 [2] | Ka [3] | Activity [4] | RUmax [5] | Kd [6] | Activity [7] | Activity [8] | Activity [9] | EC50 [10] |
| --- | --- | --- | --- | --- | --- | --- | --- | --- | --- | --- |
| O=C(N/N=C/c1cccc(Cl)c1Cl)c1cc2c(s1)CCCC2 | 8.7 ×10⁻³ /s | 80 s | 5.8 ×10² /M/s | Active | 4.5 | 15 µM |  |  |  |  |
| O=C(N/N=C/c1cccc(Br)c1)c1cc2c(s1)CCCC2 | 4.1 ×10⁻² /s | 17 s | 2.6 ×10³ /M/s | Active | 4.6 | 16 µM |  |  |  |  |
| O=C(N/N=C/c1cccc(Cl)c1Cl)c1ccccc1P(=O)(O)O |  |  |  |  |  | 1010 µM | Active | Active | Active | 120 µM |
